Consider 17 compounds from patent US11976083B2, “Inhibitors of peptidylarginine deiminases” (Gilead Sciences, Inc., priority 2020, dated 2024).

For the test, the target named is T1, human PAD4 (Homo sapiens, UniProt Q9UM07).
T1 construct: human PAD4 (NM_012387), A2-P663, was PCR amplified; His-SUMO (N, cleaved yes); made in house; host or cells: E. coli BL21(DE3)
Kind of test: In vitro PAD4 BAEE biochemical assay. The following applies: BAEE substrate 3 mM, 5 nM PAD4, 2 mM calcium chloride; geometric mean of multiple experiments. The method in brief:
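Recombinant PAD4 (5 nM final) with 2 mM CaCl2 was preincubated with compound for 30 min at 25 °C in MOPS pH 7.6 buffer with DTT, then reacted with 3 mM BAEE for 2 h at 25 °C. Released ammonia was detected fluorimetrically with o-phthalaldehyde/DTT; IC50 from four-parameter fit, geometric mean of experiments.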

T1 sequence (Q9UM07 2-663): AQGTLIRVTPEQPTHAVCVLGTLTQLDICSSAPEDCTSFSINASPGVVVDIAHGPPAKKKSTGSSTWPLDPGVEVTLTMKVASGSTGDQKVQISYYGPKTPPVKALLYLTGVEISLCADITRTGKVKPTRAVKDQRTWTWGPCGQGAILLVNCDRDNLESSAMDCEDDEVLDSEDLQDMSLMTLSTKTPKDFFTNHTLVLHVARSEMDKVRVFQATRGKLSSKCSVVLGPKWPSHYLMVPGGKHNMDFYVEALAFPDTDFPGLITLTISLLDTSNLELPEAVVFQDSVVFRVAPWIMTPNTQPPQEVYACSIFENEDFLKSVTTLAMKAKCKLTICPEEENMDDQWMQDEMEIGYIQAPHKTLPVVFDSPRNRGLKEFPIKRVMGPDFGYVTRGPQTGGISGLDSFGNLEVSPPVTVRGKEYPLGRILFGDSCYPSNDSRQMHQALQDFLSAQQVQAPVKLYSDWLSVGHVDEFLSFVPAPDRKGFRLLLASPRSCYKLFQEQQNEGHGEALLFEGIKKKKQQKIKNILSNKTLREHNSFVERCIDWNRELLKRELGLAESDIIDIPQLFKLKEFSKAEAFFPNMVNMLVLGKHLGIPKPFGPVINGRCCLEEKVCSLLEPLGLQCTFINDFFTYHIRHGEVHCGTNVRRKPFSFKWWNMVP

For the compound `C[C@H]1NC(=O)[C@@H]2C[C@@H]2CCCCCn2c(-c3nc4cc(C(=O)N[C@H]5CNCC[C@@H]5F)c(F)cc4n3C)cc3ccc1nc32` [Example 522, 6-fluoro-~{N}-[(3~ {S},4~{S})-4-fluoro-3-piperidyl]-1-methyl-2-[(2~{R},5~{R},7~{S})-2-methyl-4-oxo-3,13,19-triazatetracyclo[11.5.2.0^ {5,7).0^{16,20}]icosa-1(19),14,16(20), 17-tetraen-14-yl] benzimidazole-5-carboxamide], the IC50 was 40 nM.
As for `[2H]C1([2H])CCCC[C@@H]2C[C@H]2C(=O)N[C@H](C)c2ccc3cc(-c4nc5cc(C(=O)N6C[C@H](N)[C@@H]7CC[C@H]6C7)cc(F)c5n4C4CC4)n1c3n2` [Example 482, (2~{R},5~{R},7~{R})-14-[5-[(1~{S},4~{R},5~{R})-4-amino-2-azabicyclo[3.2.1]octane-2-carbonyl]-1-cyclopropyl-7-fluoro-benzimidazol-2-yl]-12,12-dideuterio-2-methyl-3,13,19-triazatetracyclo[11.5.2.0^{5,7}.0^{16,20}] icosa-1(19),14,16(20),17-tetraen-4-one], the IC50 amounted to 26 nM.
On to `COc1cc(C(=O)N[C@H]2CNCC[C@@H]2C(F)(F)F)cc2nc(-c3cc4ccc5nc4n3CCCCCCC(C)(C)C(=O)N[C@@H]5C)n(C)c12` [Example 380, 7-methoxy-1-methyl-~{N}-[(3~{R},4~{S})-4-(trifluoromethyl)-3-piperidyl]-2-[(11~{R})-8,8,11-trimethyl-9-oxo-1,10,19-triazatricyclo[10.5.2.0^{15,18}]nonadeca-12(19),13,15(18),16-tetraen-17-yl]benzimidazole-5-carboxamide], for which the IC50 is 1270 nM.
Next, `COc1cc(C(=O)N2CC[C@@H](OC)[C@@H](N)C2)cc2nc(-c3cc4ccc5nc4n3CCCCCc3cnccc3C(=O)N[C@@H]5C)n(C)c12` [Example 358, (2~{R})-17-[5-[(3~{S},4~{R})-3-amino-4-methoxy-piperidine-1-carbonyl]-7-methoxy-1-methyl-benzimidazol-2-yl]-2-methyl-3,8,16,22-tetrazatetracyclo[14.5.2.0^{5,10}.0^{19,23}] tricosa-1(22),5,7,9,17,19(23),20-heptaen-4-one]: 83 nM; `COc1cc(C(=O)N2C[C@H](N)[C@@H]3CC[C@H]2C3)cc2nc(-c3cc4ccc5nc4n3CC(F)(F)CCCCC3(CC3)C(=O)N[C@@H]5C)n(C)c12` [Example 475, (11~{R})-17-[5-[(1~{S},4~{R},5~{R})-4-amino-2-azabicyclo[3.2.1]octane-2-carbonyl]-7-methoxy-1-methyl-benzimidazol-2-yl]-3,3-difluoro-11-methyl-spiro[1,10,19-triazatricyclo[10.5.2.0^{15,18}]nonadeca-12(19),13,15(18),16-tetraene-8,1′-cyclopropane]-9-one]: 62 nM; `C[C@H]1NC(=O)C(C)(C)CCCCCCn2c(-c3nc4cc(C(=O)N[C@H]5CNCC[C@@H]5F)c(F)cc4n3C3CCC3)cc3ccc1nc32` [Example 420, 1-cyclobutyl-6-fluoro-˜{N}-[(3˜{S},4˜{S})-4-fluoro-3-piperidyl]-2-[(11˜{R})-8,8,11-trimethyl-9-oxo-1,10,19-triazatricyclo[10.5.2.0^{15,18}]nonadeca-12(19),13,15(18),16-tetraen-17-yl]benzimidazole-5-carboxamide]: 184 nM.
As to `COc1cc(C(=O)N2CCC[C@@H](N)C2)cc2nc(-c3cc4ccc5nc4n3CCCCCCCC(=O)N[C@H]5C(F)(F)F)n(C)c12` (single isomer, unassigned) [Example 236, (11˜{R})-17-[5-[(3˜{R})-3-aminopiperidine-1-carbonyl]-7-methoxy-1-methyl-benzimidazol-2-yl]-11-(trifluoromethyl)-1,10,19-triazatricyclo[10.5.2.0^{15,18}]nonadeca-12(19),13,15(18),16-tetraen-9-one], the IC50 is 858 nM.
For the compound `COc1cc(C(=O)N2C[C@H](N)CC[C@@H]2C)cc2nc(-c3cc4ccc5nc4n3CC(F)(F)CCC[C@@H]3C[C@H]3C(=O)N[C@@H]5C)n(C)c12` [Example 849, (2~{R},5~{R},7~{R})-14-[5-[(2~{S},5~{R})-5-amino-2-methyl-piperidine-1-carbonyl]-7-methoxy-1-methyl-benzimidazol-2-yl]-11,11-difluoro-2-methyl-3,13,19-triazatetracyclo[11.5.2.0^ {5,7}.0^{16,20}]icosa-1(19), 14,16(20),17-tetraen-4-one], the IC50 stood at 15 nM.
As for `COc1cc(C(=O)N2CCC[C@@H](N)C2)cc2nc(-c3cc4ccc5nc4n3CCCCCCNc3ncccc3-5)n(C)c12` [Example 50, [(3~{R})-3-amino-1-piperidyl]-[7-methoxy-1-methyl-2-(6,8,15,21-tetrazatetracyclo[13.5.2.0^{2,7}.0^{18,22}]docosa-1(21),2,4,6,16,18(22),19-heptaen-16-yl)benzimidazol-5-yl]methanone], the half-inhibitory concentration (IC50) is 10000 nM.
The same measure for `COc1cc(C(=O)N2C[C@H](N)[C@@H]3CC[C@H]2C3)cc2nc(-c3cc4ccc5nc4n3CCCCC[C@]3(F)C[C@H]3C(=O)NC5(C)C)n(C)c12` [Example 933, (5~{S},7~{S})-14-[5-[(1~{S},4~{R},5~{R})-4-amino-2-azabicyclo[3.2.1]octane-2-carbonyl]-7-methoxy-1-methyl-benzimidazol-2-yl]-7-fluoro-2,2-dimethyl-3,13,19-triazatetracyclo[11.5.2.0^ {5,7}.0^{16,20}]icosa-1(18), 14,16,19-tetraen-4-one]: 27 nM; for `COc1cc(C(=O)N2[C@H]3CC[C@@H]2[C@H](N)C3)cc2nc(-c3cc4ccc5nc4n3CCCCCCC(=O)N[C@@H]5C)c(C)n12` [Example 317, (10~{R})-16-[7-[(1~{R},2~{R},4~{S})-2-amino-7-azabicyclo[2.2.1]heptane-7-carbonyl]-5-methoxy-3-methyl-imidazo[1,2-a]pyridin-2-yl]-10-methyl-1,9,18-triazatricyclo[9.5.2.0^{14,17}]octadeca-11(18),12,14(17),15-tetraen-8-one]: 16 nM.
In the case of `COc1cc(C(=O)N2[C@H]3CC[C@@H]2[C@H](N)C3)cc2nc(-c3cc4ccc5nc4n3CCCCCN(C)C(=O)N[C@@H]5C)c(C)n12` [Example 210, (10~{R})-16-[7-[(1~{R},2~{R},4~{S})-2-amino-7-azabicyclo[2.2.1]heptane-7-carbonyl]-5-methoxy-3-methyl-imidazo[1,2-a]pyridin-2-yl]-7,10-dimethyl-1,7,9,18-tetrazatricyclo[9.5.2.0^{14,17}]octadeca-11(18),12,14(17),15-tetraen-8-one], the IC50 was 39 nM.
The same measure for `C[C@H]1NC(=O)[C@@H]2C[C@H]2CCCCCn2c(-c3nc4cc(C(=O)N[C@H]5CNCC[C@@H]5F)c(F)cc4n3CC3(F)CC3)cc3ccc1nc32` [Example 405, 6-fluoro-1-[(1-fluorocyclopropyl)methyl]-~{N}-[(3~{S},4~{S})-4-fluoro-3-piperidyl]-2-[(2~{R},5~{R},7~{R})-2-methyl-4-oxo-3,13,19-triazatetracyclo[11.5.2.0^{5,7}.0^{16,20}]icosa-1(19),14,16(20),17-tetraen-14-yl]benzimidazole-5-carboxamide]: 27 nM; for `COc1cc(C(=O)N2CC[C@@H](C)[C@@H](N)[C@@H]2C)cc2nc(-c3cc4ccc5nc4n3CC(F)(F)CCC[C@@H]3C[C@H]3C(=O)N[C@@H]5C)n(C)c12` [Example 676, (2~{R},5~{R},7~{R})-14-[5-[(2~{S},3~{R},4~ {R})-3-amino-2,4-dimethyl-piperidine-1-carbonyl]-7-methoxy-1-methyl-benzimidazol-2-yl]-11,11-difluoro-2-methyl-3,13,19-triazatetracyclo[11.5.2.0^ {5,7}.0^{16,20}] icosa-1(19),14,16(20), 17-tetraen-4-one]: 83 nM.
Next, `COc1cc(C(=O)N2[C@H]3CC[C@@H]2[C@H](N)C3)cc2nc(-c3cc4ccc5nc4n3C[C@@H]3[C@H](COCCC(=O)N[C@@H]5C)C3(C)C)n(C)c12` (single isomer, unassigned) [Example 10, (3˜{R},5˜{S},12˜{R})-18-[5-[(1˜{R},2˜{R},4˜{S})-2-amino-7-azabicyclo[2.2.1]heptane-7-carbonyl]-7-methoxy-1-methyl-benzimidazol-2-yl]-4,4,12-trimethyl-7-oxa-1,11,20-triazatetracyclo[11.5.2.0^{3,5}.0^{16,19}]icosa-13(20),14,16(19),17-tetraen-10-one]: 56 nM.
`COc1cc(C(=O)N2C[C@H](N)[C@@H]3CC[C@H]2C3)cc2nc(-c3cc4ccc5nc4n3CCCCC[C@@H]3C[C@H]3C(=O)N[C@@H]5C)n(C)c12` [Example 444, (2~{R},5~{R},7~{R})-14-[5-[(1~{S},4~{R},5~{R})-4-amino-2-azabicyclo[3.2.1]octane-2-carbonyl]-7-methoxy-1-methyl-benzimidazol-2-yl]-2-methyl-3,13,19-triazatetracyclo[11.5.2.0^{5,7}.0^{16,20}] icosa-1(19),14,16(20),17-tetraen-4-one]: the IC50 is 20 nM.
The same measure for `COc1cc(C(=O)N2CC[C@@H](OC)[C@@H](N)C2)cc2nc(-c3cc4ccc5nc4n3CCCCCc3nc(Cl)ccc3C(=O)N[C@@H]5C)n(C)c12` [Example 407, (2~{R})-17-[5-[(3~{S},4~{R})-3-amino-4-methoxy-piperidine-1-carbonyl]-7-methoxy-1-methyl-benzimidazol-2-yl]-8-chloro-2-methyl-3,9,16,22-tetrazatetracyclo[14.5.2.0^{5,10).0^{19,23}] tricosa-1(22),5(10),6,8,17,19(23),20-heptaen-4-one]: 70 nM.

In general, IC50 refers to the concentration that gives 50% inhibition.
